In patent US20140088073A1, “METHODS FOR DETERMINING WHETHER A PATIENT SHOULD BE ADMINISTERED A DRUG THAT INHIBITS CHOLESTEROL ABSORPTION” (Boston Heart Diagnostics Corporation, priority 2012, published 2014):

Legend:
[1] = tested on: patients with coronary heart disease; conditions: comparing sterol/cholesterol ratios; previous studies; cited from earlier work
[2] = tested on: hypercholesterolemic subjects; assay: EASE study post hoc analysis: plasma lipids, apolipoproteins and hs-CRP, ezetimibe add-on to ongoing statin therapy; type: in vivo, human; conditions: for Triglyceride / Apo A1 / Apo B / HDL-C / Non-HDL-C / Total C / Total C/HDL-C ratio / LDL-C / hs-CRP: baseline during ongoing statin therapy, by statin type; for Apo A1 / Apo B / HDL-C / Non-HDL-C / Total C / Total C/HDL-C ratio / LDL-C: mean ± SD; for LDL-C: Friedewald formula; for hs-CRP: median ± robust SD; for reductions from baseline in LDL-C / mean percent LDL-C reduction / percent LDL-C reduction from baseline: 6 weeks; for reductions from baseline in LDL-C: unadjusted data; for mean percent LDL-C reduction / percent change from baseline in LDL-C / percent change from baseline in non-HDL-C / percent change from baseline in total C/HDL-C: ezetimibe add-on
Protocol: (§1) Briefly, hypercholesterolemic subjects (n=874) on statins received ezetimibe 10 mg/day. Plasma lipids, lathosterol, and β-sitosterol were measured at baseline and on treatment.
(§2) This study included subjects from the ezetimibe add-on to statin arm of the EASE study (http://clinicaltrials.gov identifier NCT00092586; Study Protocol 040). Details of the study design and outcomes have been published previously. (See Pearson T A, Denke M A, McBride P E, Battisti W P, Brady W E, Palmisano J. A community-based, randomized trial of ezetimibe added to statin therapy to attain NCEP ATP III goals for LDL cholesterol in hypercholesterolemic patients: the ezetimibe add-on to statin for effectiveness (EASE) trial. Mayo Clin Proc 2005; 80:587-95; Pearson T A, Denke M A, McBride P E, et al. Effectiveness of ezetimibe added to ongoing statin therapy in modifying lipid profiles and low-density lipoprotein cholesterol goal attainment in patients of different races and ethnicities: a substudy of the Ezetimibe add-on to statin for effectiveness trial. Mayo Clin Proc 2006; 81:1177-85.)
(§3) Briefly, the EASE study was a multicenter, randomized, double-blind, placebo-controlled, 6-week parallel-group study. Participants with hypercholesterolemia were recruited from community based practices across the United States. Inclusion criteria were: 1) age ≧18 years, 2) on a stable, approved dose of any statin, 3) following a cholesterol-lowering diet for ≧6 weeks before study entry, and 4) LDL-C levels above risk-based NCEP ATP III targets. Subjects receiving lipid-altering agents other than statins during the 6 weeks before screening were excluded. Patients were randomized to receive ezetimibe 10 mg/day or placebo plus their current statin therapy and dose for 6 weeks. Statin type and dose were maintained throughout the study. The research protocol was approved by the investigational review boards at each site, and all participants provided written informed consent prior to study start.
(§4) For this current post hoc analysis, we assessed subjects who were randomized into the ezetimibe 10 mg plus statin arm of the EASE study (n=1940). Of the 1124 subjects with samples available for measurement, only those who had complete sterol and lipid data at baseline and at the end of the 6-week study were included in this analysis (n=874). The mean age and other baseline characteristics of those included and excluded from this analysis were similar. Comparison of subjects was based on statin type or potency (low, medium, high) subgroups. The low potency statin group (predicted LDL-C reduction of ˜20-30%) included subjects receiving simvastatin ≦10 mg/day, lovastatin ≦20 mg/day, pravastatin ≦20 mg/day, and fluvastatin ≦40 mg/day. The medium potency statin group (predicted LDL-C reduction of ˜31-45%) included subjects receiving simvastatin >10 to ≦40 mg/day, atorvastatin ≦20 mg/day, lovastatin >20 to 80 mg/day, pravastatin >20 to 80 mg/day, and fluvastatin >40 to 80 mg/day.
(§5) Plasma total cholesterol (total C), high-density lipoprotein cholesterol (HDL-C), and triglycerides (TG) were analyzed using standardized methods at the central laboratory of the trial (PPD Global Central Labs, Highland Heights, Kentucky, USA). LDL-C was calculated using the Friedewald formula. (See Friedewald W T, Levy R I, Fredrickson D S. Estimation of the concentration of low-density lipoprotein cholesterol in plasma, without use of the preparative ultracentrifuge. Clin Chem 1972; 18:499-502.) Non-HDL-C was calculated by subtracting HDL-C from total C. Apolipoprotein (Apo) A-I, Apo B, and high-sensitivity C-reactive protein (hs-CRP) were measured by automated immunoassays at the central laboratory. Within and between coefficients for all assays were <10%. Plasma lathosterol and β-sitosterol were quantified by gas chromatography mass spectrometry after lipid extraction as previously described in Sudhop T, Lutjohann D, Kodal A, et al. Inhibition of intestinal cholesterol absorption by ezetimibe in humans. […]

[3] = tested on: hypercholesterolemic subjects; assay: EASE study post hoc analysis: plasma lathosterol and β-sitosterol by gas chromatography mass spectrometry; type: in vivo, human; conditions: for B-sitosterol / B-sitosterol/Lathosterol / B-sitosterol/Total C / Lathosterol / Lathosterol/Total C: baseline during ongoing statin therapy, by statin type, mean ± SD
Protocol: as §1, §2, §3, §4, §5

[4] = literature; cited from earlier work
[5] = subjects with baseline sitosterol/lathosterol above the median
[6] = subjects with baseline sitosterol/lathosterol ≦ the median
[7] = overall study population, ezetimibe add-on to statin, 6 weeks

For `CC(C)c1c(C(=O)Nc2ccccc2)c(-c2ccccc2)c(-c2ccc(F)cc2)n1CC[C@@H](O)C[C@@H](O)CC(=O)O` [Atorvastatin, atorvastatin], the “increase of plant sterols” value [1] is listed as 82%, the “reduction of precursor sterols” value [1] is listed as −50% and the Triglyceride [2] is listed as 149.0 ± 85.6 mg/dL. For the same compound, the “Apo A1” value [2] was 156.3 ± 26.1 mg/dL, the “Apo B” value [2] was 129.2 ± 25.4 mg/dL and the HDL-C [2] was 47.8 ± 10.7 mg/dL. The Non-HDL-C [2] was 162.0 ± 33.6 mg/dL, the “Total C” value [2] was 209.7 ± 35.4 mg/dL and the “Total C/HDL-C ratio” value [2] was 4.55 ± 1.05. The LDL-C [2] was 130.0 ± 30.9 mg/dL, the hs-CRP [2] was 2.40 ± 3.53 mg/L and the B-sitosterol [3] was 5.40 ± 2.93 µmol/L. For the same compound, the B-sitosterol/Lathosterol [3] was 4.22 ± 4.39, the “B-sitosterol/Total C” value [3] was 1.01 ± 0.57 μmol/mmol and the Lathosterol [3] was 2.20 ± 1.70 µmol/L. The “Lathosterol/Total C” value [3] was 0.39 ± 0.26 μmol/mmol.
In the case of `CC[C@H](C)C(=O)O[C@H]1C[C@H](O)C=C2C=C[C@H](C)[C@H](CC[C@@H](O)C[C@@H](O)CC(=O)O)[C@H]21` [Pravastatin, pravastatin], the Triglyceride [2] is reported as 155.0 ± 80.0 mg/dL, the “Apo A1” value [2] is reported as 160.5 ± 28.2 mg/dL and the “Apo B” value [2] is reported as 131.3 ± 26.0 mg/dL. The HDL-C [2] was 48.6 ± 12.0 mg/dL, the Non-HDL-C [2] was 166.9 ± 34.5 mg/dL and the “Total C” value [2] was 215.5 ± 34.9 mg/dL. For the same compound, the “Total C/HDL-C ratio” value [2] was 4.65 ± 1.25, the LDL-C [2] was 133.1 ± 28.3 mg/dL and the hs-CRP [2] was 2.70 ± 4.09 mg/L. The B-sitosterol [3] was 4.72 ± 2.51 µmol/L, the B-sitosterol/Lathosterol [3] was 2.11 ± 2.10 and the “B-sitosterol/Total C” value [3] was 0.86 ± 0.48 μmol/mmol. For the same compound, the Lathosterol [3] was 3.08 ± 1.69 µmol/L and the “Lathosterol/Total C” value [3] was 0.55 ± 0.26 μmol/mmol.
For `CCC(C)(C)C(=O)O[C@H]1C[C@@H](C)C=C2C=C[C@H](C)[C@H](CC[C@@H]3C[C@@H](O)CC(=O)O3)[C@H]21` [Simvastatin, simvastatin], the Triglyceride [2] was 149.0 ± 88.4 mg/dL, the “Apo A1” value [2] was 157.7 ± 26.3 mg/dL and the “Apo B” value [2] was 125.8 ± 23.2 mg/dL. The HDL-C [2] was 48.2 ± 11.8 mg/dL, the Non-HDL-C [2] was 157.4 ± 30.2 mg/dL and the “Total C” value [2] was 205.5 ± 31.4 mg/dL. The “Total C/HDL-C ratio” value [2] was 4.46 ± 1.10, the LDL-C [2] was 124.3 ± 26.1 mg/dL and the hs-CRP [2] was 2.50 ± 3.81 mg/L. For the same compound, the B-sitosterol [3] was 4.33 ± 2.17 µmol/L, the “B-sitosterol/Total C” value [3] was 0.82 ± 0.40 μmol/mmol and the Lathosterol [3] was 2.47 ± 1.68 µmol/L. For the same compound, the “Lathosterol/Total C” value [3] was 0.46 ± 0.28 μmol/mmol.
In the case of `O=C1[C@H](CC[C@H](O)c2ccc(F)cc2)[C@@H](c2ccc(O)cc2)N1c1ccc(F)cc1` [ezetimibe], the “LDL-C lowered by” value ([2]; addition of ezetimibe to any statin) is reported as 23-26%, the “reductions from baseline in LDL-C” value ([2]; ezetimibe 10 mg/day added to ongoing high potency statin) is reported as −29.1% and the “reductions from baseline in LDL-C” value ([2]; ezetimibe 10 mg/day added to ongoing low potency statin) is reported as −22.7%. For the same compound, the “reductions from baseline in LDL-C” value ([2]; ezetimibe 10 mg/day added to ongoing medium potency statin) was −25.0%, the “mean percent LDL-C reduction” value ([2]; high potency statin group) was 29.1% and the “mean percent LDL-C reduction” value ([2]; low potency statin group) was 22.7%. The “mean percent LDL-C reduction” value ([2]; medium potency statin group) was 25.0%, the “percent change from baseline in LDL-C” value [2, 5] was −26.7% and the “percent change from baseline in non-HDL-C” value [2, 5] was −24.2%. For the same compound, the “percent change from baseline in total C/HDL-C” value [2, 5] was −19.0%, the “percent change from baseline in LDL-C” value [2, 6] was −24.1% and the “percent change from baseline in non-HDL-C” value [2, 6] was −21.6%. The “percent change from baseline in total C/HDL-C” value [2, 6] was −17.0%, the “percent LDL-C reduction from baseline” value ([2]; ezetimibe combination with ongoing atorvastatin) was 26.4% and the “percent LDL-C reduction from baseline” value ([2]; ezetimibe combination with ongoing lovastatin or fluvastatin) was 24.1%. The “percent LDL-C reduction from baseline” value ([2]; ezetimibe combination with ongoing pravastatin) was 23.1%, the “percent LDL-C reduction from baseline” value ([2]; ezetimibe combination with ongoing simvastatin) was 26.4% and the “mean lathosterol levels increased by” value [3, 7] was 52%. The “mean lathosterol/cholesterol ratio increased by” value [3, 7] was 83.8%, the “mean β-sitosterol levels decreased by” value [3, 7] was 47.4% and the “mean β-sitosterol/cholesterol ratio decreased by” value [3, 7] was 36.3%. The “overall percent change in the mean β-sitosterol/lathosterol ratio” value [3, 7] was −52.4% and the “reduces LDL-C levels by” value [4] was 15-20%.
